The values that follow come from PMC4732562 (2015).

By Kd is commonly meant a measure of binding affinity in units of concentration.

For the test, the system named is 3',3'-cGAMP riboswitch (Gs1761 aptamer, A2G/U72C/C73U) (RNA, riboswitch) GGUACACGACAAUACUAAACCAUCCGCGAGGAUGGGGCGGAAAGCCUAAGGGUCUCCCUGAGACAGCCGGGCUGCCGAAAUAUC
The test can be described thus: ITC. The settings on record: 35 °C; one set of sites; buffer in supplement.

Consider `Nc1nc2c(ncn2[C@@H]2O[C@@H]3COP(=O)(O)O[C@H]4[C@@H](O)[C@H](n5cnc6c(=O)[nH]c(N)nc65)O[C@@H]4COP(=O)(O)O[C@H]3[C@H]2O)c(=O)[nH]1`, for which the Kd is 930 nM.
`Nc1nc2c(ncn2[C@@H]2O[C@@H]3COP(=O)(O)O[C@H]4[C@@H](O)[C@H](n5cnc6c(N)ncnc65)O[C@@H]4COP(=O)(O)O[C@H]3[C@H]2O)c(=O)[nH]1` had a Kd of 70 nM.
